From patent publication US7442394B2, “Combined effects of nutrients on proliferation of stem cells” (University of South Florida, priority 2005, dated 2008)
One block for each molecule: values may come before it.

What was measured:
[1] = test system: human bone marrow cells; assay: MTT cell proliferation assay on human bone marrow cells; format: cell-based; conditions: for increase in proliferation, percent over control: 20 μM; for proliferative activity on human bone marrow cells in culture (screen): screened individually
[2] = test system: Human bone marrow-derived CD34+ cells; assay: MTT cell proliferation assay on CD34+ cells; format: cell-based; conditions: highest doses (BB 500 ng/mL, D3 5 μM, CH 20 μM, Ca 20 μM, GT 500 ng/mL), 72 hours
Protocol: Human CD133+ cells were cultured for 23 days in the presence or absence of green tea (50 μg/ml).
(§1) Cell cultures and MTT Assay. For cell proliferation analysis, human bone marrow cells, human CD34+cells or CD133 cells (BioWhittaker, Inc.) were cultured in 96 well plates (5×10^4/well) containing 100 μL of complete medium (RPMI 1640 medium supplemented with 5% fetal calf serum). These cells were treated for 72 hours with various extracts at a wide range of doses (8 ng/mL to 500 ng/mL) or molecular compounds (0.3125 μM to 20 μM). Five hours before the end of the treatment, 20 μL of MTT solution (MTT kit, Sigma) was added to each well. These plates were then incubated in a CO2 incubator at 37° C. for 5 hours and the cultured media removed with needle and syringe. 200 μL of DMSO was added to each well with pipetting up and down to dissolve crystals. These plates were put back into the 37° C. incubator for 5 minutes, transferred to plate reader and measured absorbance at 550 nm. Data were represented as relative percentage mean proliferation, defined as O.D. reading number of each treated cells normalized to control cells (in the absence of treatment).

[3] = test system: CD133+ (progenitor cells) collected from peripheral blood; assay: MTT cell proliferation assay on CD133+ cells; format: cell-based, human; conditions: same conditions as CD34+ cells
Protocol: as §1
Promotion of CD133+ Cell Proliferation and Synergistic Properties of Extracts and Compounds. Some of the compounds and combinations with the greatest activity on proliferation of the bone marrow derived CD34+ cells were then used to treat CD133+ (progenitor cells) collected from peripheral blood and cultured under the same conditions as above.

[4] = Vitamin D3 blood concentration in humans; format: in vivo; conditions: dose of 50 mcg
Protocol: In one example, Vitamin D3 is used as 2000 IU's, which is equivalent to 50 μg. In humans, daily administration of 4000 IUs (100 mcg) results in a blood concentration of 100 nmol/L. There is no official RDA for vitamin D3 [R. Vieth, D. Fraser, Vitamin D insufficiency: no recommended dietary allowance exists for this nutrient, CMAJ 166 (2002) 1541-1542](4). According to a conservative report of the Food and Nutrition Board [R. Vieth (2004) Why the optimal requirement for Vitamin D3 is probably much higher than what is officially recommended for adults. Journal of Steroid Biochemistry & Molecular Biology 89-90 (2004) 575-579], the safety limit (no adverse effect level, NOAEL) of vitamin D3 intake in humans is 60 mcg (or 2400 IU) per day [Standing Committee on the Scientific Evaluation of Dietary Reference Intakes. Dietary Reference Intakes: Calcium, Phosphorus, Magnesium, Vitamin D, and Fluoride. National Academy Press, 1997]. After applying a margin of safety, the recommended upper limit is 50 mcg (2000 IUs) per day for intake by the general public [I. Munro, Derivation of tolerable upper intake levels of nutrients, Am. J. Clin. Nutr. 74 (2001) 865-867]. Clinical trials show no benefit from oral doses 20 mcg (800 IUs) or less [R. Vieth (2004) Why the optimal requirement for Vitamin D3 is probably much higher than what is officially recommended for adults. […]

[5] = daily administration of 4000 IUs (100 mcg); cited from earlier work
[6] = cited from earlier work
[7] = Human pK study of carnosine after beef consumption (Park et al. 2005); format: in vivo, humans
Protocol: In one example, carnosine is added to a supplement in a dose of 100 mg. A recent pK study in humans [Park Y J, Volpe S L, Decker, E A (2005) Quantitation of Carnosine in Humans Plasma after Dietary Consumption of Beef. J. Agric. […] With a Mw of 266 and assuming 5 liters of blood in a human, 250 mg carnosine produces a blood conc of […]. Assuming linear pK, 100 mg should produce a human blood concentration of […]. Doses tested ranged from 1-20 μM, effect was still increasing at 20 μM. Thus, a dose as high as 620 may be helpful and still be within normal ranges for human consumption. A preferred effective range is about 10 mg to 100 mg of carnosine based on extrapolation from results obtained.

[8] = cited from earlier work; remark: listed apart in the source
[9] = test system: CD117/SCA-1 positive cells (hematopoietic stem cells); assay: Flow cytometry of CD117/SCA-1 positive cells after 6 days of treatment; format: in vivo, mice; conditions: day 7
Protocol: (§2) On day 7 cells were isolated and prepared for flow cytometry. The percentage of CD117/SCA-1 positive cells was analyzed. This represents a hematopoietic stem cells. […] On day 7 cells were isolated and plated in the colony forming assay (see specific methods) for 5 days. ATP was detected by luciferase assay and luminescence was converted to ATP units with use of a standard curve. […] Although a statistically small sample, the effects show a cytokine like effect to reduce progenitors in the bone marrow.
(§3) In vivo studies. […] To date we have treated 3 mice with (Blueberry Extract: 3 mg/kg/day; Carnosine: 10 mg/kg/day; Vitamin D3:1 mg/kg/day; green tea extract: 3 mg/kg/day) or water by gavage, in addition 3 mice have been treated with G-CSF […] i.p. Initial studies were done at 6 days of treatment as this is an optimal time for G-CSF to show mobilization of progenitors into the peripheral blood. Bone marrow, spleen and peripheral blood mononuclear cells were examined by flow cytometry with SCA-1 and CD117, the presence of both markers is indicative of multipotent hematopoietic stem cells. […] The three fractions were also assessed in the HALO™ colony forming assay. […] This effect is consistent with the literature and thus increases our confidence in this version of the CFU-C assay.

[10] = test system: colony forming units (CFU-C's); assay: HALO colony forming assay of bone marrow, spleen and mononuclear cells; format: in vivo, mice; conditions: 6 days of treatment
Protocol: as §2, §3

Molecule: Catechin
increase in proliferation, percent over control ([1]; 72 hours): 34.8±5.2% | proliferative activity on human bone marrow cells in culture (screen) [1]: increase cell proliferation | increase in proliferation, percent over control (FIG. 2B) [2]: 24.8±5.0%

Molecule: C=C1CC[C@H](O)C/C1=C/C=C1\CCC[C@]2(C)[C@@H]([C@H](C)CCCC(C)(C)O)CC[C@@H]12 [25-Hydroxycholecalciferol]
proliferation, percent over control ([1]; 5 μM, 72 hours): 14.8±3.3% | proliferative activity on human bone marrow cells in culture (screen) [1]: increase cell proliferation | increase in proliferation, percent over control (FIG. 2B) [2]: 6.9±2.6% | increase in proliferation, percent over control (FIG. 2C) [3]: 7.6±1.39% | plasma concentration [4]: 0.05 µM | blood concentration [5]: 100 nmol/L | recommended upper limit for intake by the general public ([6]; after applying a margin of safety): 50 mcg per day | safety in clinical trials ([6]; human oral doses of 1000 IUs to 4000 IUs (100 mcg/day)): completely safe | safety limit (no adverse effect level, NOAEL) of intake ([6]; humans): 60 mcg per day

Molecule: O=C(O[C@@H]1Cc2c(O)cc(O)cc2O[C@@H]1c1cc(O)c(O)c(O)c1)c1cc(O)c(O)c(O)c1 [EGCG]
proliferative activity on human bone marrow cells in culture (screen) [1]: did not show high activity

Molecule: hGM-CSF: positive control, human granulocyte colony-stimulating factor
increase in proliferation, percent over control (FIG. 2A) ([1]; combination experiment, BB 500 ng/mL, D3 5 μM, CH 20 μM, Ca 20 μM, GT 500 ng/mL, 72 hours): 48.3±7.4% | proliferation, percent over control ([1]; highest dose of 100 ng/ml, 72 hours): 44.5±8.1% | increase in proliferation, percent over control (FIG. 2B) [2]: 48.3±7.4% | increase in proliferation, percent over control (FIG. 2C) [3]: 21.11±2.9%

human blood concentration ([7]; 100 mg, assuming linear pK): 248 µM | concentration at 3 h ([7]; human, whole blood, oral, 250 mg carnosine, Mw of 266, assuming 5 liters of blood, read-out: blood conc): 620 µM
Molecule: NCCC(=O)N[C@@H](Cc1cnc[nH]1)C(=O)O [Carnosine]
increase in proliferation, percent over control ([1]; 72 hours): 26.6±6.0% | proliferative activity on human bone marrow cells in culture (screen) [1]: increase cell proliferation | increase in proliferation, percent over control (FIG. 2B) [2]: 11.05±2.1% | increase in proliferation, percent over control (FIG. 2C) [3]: 16.9±3.3% | plasma conc. ([8]; 250 mg carnosine (two beef patties) ingested): 33 mg/L | time of plasma peak ([8]; 250 mg carnosine ingested): 3 h | time of return to baseline ([8]; 250 mg carnosine ingested): 5 h

B1: G-CSF: granulocyte-colony-stimulating factor, potent cytokine given i.p. to mice (protein, UniProt P09919 31-207, looked up)
Granulocyte …: TPLGPASSLPQSFLLKCLEQVRKIQGDGAALQEKLVSECATYKLCHPEELVLLGHSLGIPWAPLSSCPSQALQLAGCLSQLHSGLFLYQGLLQALEGISPELGPTLDTLQLDVADFATTIWQQMEELGMAPALQPTQGAMPAFASAFQRRAGGVLVASHLQSFLEVSYRVLRHLAQP
CD117/SCA-1 positive cells ([9]; BM population): decrease | CD117/SCA-1 positive cells ([9]; all 3 cell fractions (BM, spleen, MNC)): small increase | CD117/SCA-1 positive cells ([9]; spleen and MNC populations): trend for an increase | colony forming units (CFU-C's) ([10]; bone marrow fraction): decrease | colony forming units (CFU-C's) ([10]; bone marrow fraction, listed as GCSF): reduce | colony forming units (CFU-C's) ([10]; spleen and MNC fractions): increase
